Measurements from article PMC11596599, “Structure Characterization of Four New Sesquiterpene Pyridine Alkaloids from Tripterygium wilfordii Hook. f. and Anti-Inflammatory Activity Evaluations” (Molecules, 2024).
Entries after “also recorded” stand apart in the source; their conditions may differ. Like-named read-outs stand apart in the source and are kept apart here.

Tests used:
nitric oxide generation = settings: cited from earlier work; for suppressed nitric oxide generation: LPS induced RAW264.7 cells, concentration of 5 μM ref 23; for IC50: LPS induced RAW264.7 cells ref 24, read-out: IC50 (nitric oxide inhibitory effects)
[1] = Cell viability by CCK-8 method; assay type: cell-based; settings: human; HEK293 cells, CCK-8, compounds at 100 μM, 48 h; read-out: Cell Viability (%) (n = 3)
Experimental: (§1) The effect of the test compounds on the viability of HEK293 cells was determined by the CCK-8 method. Briefly, HEK293 cells were inoculated into 96-well plates with 5 × 10^3 cells per well and incubated at 37 °C with 5% CO2 for 24 h. The cells were treated with test compounds and incubated for 48 h; then, 20 μL of the CCK-8 reagent was added into each well and incubated for another 2 h. The absorbance at 450 nm was measured with a microplate reader to further calculate the cell viability. All experiments were performed in triplicate.

NF-κB pathway [2] = assay: NF-κB luciferase reporter assay in LPS-induced HEK293/NF-κB-Luc cells; assay type: cell-based; settings: for inhibition at 100 µM / IC50: Homo sapiens; for inhibition at 100 µM: HEK293, 24 h, read-out: NF-κB Inhibitory Rates (%) (n = 3); for IC50: read-out: IC50 (NF-κB inhibition)
Experimental: Anti-inflammation bioassays were carried out using the HEK293/NF-κB-Luc cells, which were produced as the described procedure. The HEK293/NF-κB-Luc cells were inoculated into 48-well plates and cultured in DMEM supplemented with 10% fetal bovine serum (FBS) for 16 h. Following treatment with the tested compounds, the cells were simulated with 1 μg/mL of LPS for a duration of 24 h. Then, the cells were rinsed twice with phosphate-buffered saline (PBS, pH 7.4) prior to lysing with passive lysis buffer. Then, the inhibitory effects on NF-κB were analyzed using the luciferase assay system according to the manufacturer’s instructions. All the experiments were performed in triplicate.

NF-κB pathway [3] = tested on: NF-κB pathway; design: method as in PMID 36364101; settings: LPS-induced HEK293/NF-κB-Luc cells; previous study ref 26; read-out: IC50 (inhibitory activity on the NF-κB pathway); cited from earlier work
HEK293 cells = assay: Cell viability by CCK-8 method; assay type: cell-based; settings: concentration of 100 μM
Experimental: as §1

[4] = tested on: cytokines (TNF-α, IL-1β, IL-8, IL-2, IL-4, and IFN-γ); design: method as in PMID 11374948; settings: 10 μg/mL, IL-8, IL-2, IL-4, IFN-γ, inhibitory rates reaching 100% in some cases ref 25; cited from earlier work
[5] = compounds at 100 μM, 1 μg/mL LPS 24 h

Question: For `CC(=O)OC[C@]12[C@H](OC(C)=O)[C@H](OC(C)=O)[C@@H]3[C@@H](OC(C)=O)[C@@]14O[C@@]3(C)COC(=O)c1cccnc1CCC(C)C(=O)O[C@@H]([C@H](OC(C)=O)[C@@H]2OC(C)=O)[C@]4(C)O` (stereo partly shown) [euonine], which “suppressed nitric oxide generation” value (nitric oxide generation) is on record?
Answer: 54.7%

Question: Which results are given for `CC(=O)OCC12C(OC(C)=O)C(OC(C)=O)C3C(OC(C)=O)C14OC3(C)COC(=O)c1cnccc1C(C)C(C)C(=O)OC(C(OC(C)=O)C2OC(C)=O)C4(C)O` (stereo not shown) [Compound 8, peritassine A]?
Answer: viability at 48 h, 100 µM [1]: 93.9 ± 6.1%; suppressed nitric oxide generation (nitric oxide generation): 8.2%; inhibition at 100 µM (NF-κB pathway [2]; [5]): 19.1 ± 3.2%

Question: With `CC(=O)OCC12C(OC(C)=O)C(OC(C)=O)C3C(OC(C)=O)C14OC3(C)COC(=O)c1cnccc1CCC(C)(O)C(=O)OC(C(OC(=O)c1ccco1)C2OC(C)=O)C4(C)O` (stereo not shown) [Compound 2, wilfordinine H] as the molecule, how does the viability at 48 h, 100 µM [1] read?
Answer: 94.2 ± 5.75%

Question: What about the inhibition at 100 µM (NF-κB pathway [2]; [5]) of the same molecule?
Answer: 33.9 ± 2.06%

Question: For `CC(=O)OCC12C(OC(C)=O)C(=O)C3C(OC(C)=O)C14OC3(C)COC(=O)c1cccnc1CCC(C)(OC(=O)c1ccoc1)C(=O)OC(C(O)C2OC(C)=O)C4(C)O` (stereo not shown) [tripterygiumine S], which IC50 (nitric oxide generation) is on record?
Answer: 23.8 ± 4.38 µM

Question: What does the source list for `CC(=O)OCC12C(OC(C)=O)C(OC(C)=O)C3C(OC(C)=O)C14OC3(C)COC(=O)c1cnccc1C(C)C(C)(O)C(=O)OC(C(OC(C)=O)C2OC(C)=O)C4(C)O` (stereo not shown) [Compound 7, wilfordinine B]?
Answer: viability at 48 h, 100 µM [1]: 95 ± 36.2%; inhibition at 100 µM (NF-κB pathway [2]; [5]): 32.1 ± 5.7%

Question: With `CC(=O)OC[C@]12[C@H](OC(C)=O)[C@H](OC(C)=O)[C@@H]3[C@@H](OC(C)=O)[C@@]14O[C@@]3(C)COC(=O)c1cccnc1CCC(C)C(=O)O[C@@H]([C@H](OC(=O)c1ccccc1)[C@@H]2OC(C)=O)[C@]4(C)O` (stereo partly shown) [wilforine] as the molecule, how does the IC50 (NF-κB pathway [3]) read?
Answer: 15.7 µM

Question: Which “NF-κB Inhibitory Rates (%) (n = 3)” value (NF-κB pathway [2]; [5]) does the source give for `Cc1ccc(NCCCc2ccccc2)c(N)c1` [JSH23, reference compound] here?
Answer: 74.56 ± 1.83%

Question: Which results are given for `CC(=O)OC[C@]12[C@H](OC(C)=O)[C@H](OC(C)=O)[C@@H]3[C@@H](OC(C)=O)[C@@]14O[C@@]3(C)COC(=O)c1cnccc1C(C)C(C)C(=O)O[C@@H]([C@H](O)[C@@H]2OC(C)=O)[C@]4(C)O` (stereo partly shown) [Compound 6, wilfordinine A]?
Answer: viability at 48 h, 100 µM [1]: 92.4 ± 7.62%; influence on cell viability (in words) (HEK293 cells): no influence on the cell viability; also recorded: no cytotoxicity; suppressed nitric oxide generation (nitric oxide generation): 59.0%; inhibition at 100 µM (NF-κB pathway [2]; [5]): > 45%; IC50 (NF-κB pathway [2]): 9.05 µM

Question: With `CC(=O)OCC12C(OC(C)=O)C(O)C3OC(=O)C(C)C(C)c4ccncc4C(=O)OCC4(C)OC1(C(O)C4C(OC(C)=O)C2OC(C)=O)C3(C)O` (stereo not drawn) [Compound 4, 1β,7β,8β,11-tetraacetoxy-1β,4α,5α-trihydroxy-3α,15-[2′,3′-dimethyl-3′-(3″-carboxy-4″-pyridyl)propanic acid] dicarbolactone dihydro-β-agarofuran] as the molecule, how does the viability at 48 h, 100 µM [1] read?
Answer: 100 ± 2.55%

Question: What about the “influence on cell viability (in words)” value (HEK293 cells) of the same molecule?
Answer: no influence on the cell viability; also recorded: no cytotoxicity

Question: What about the inhibition at 100 µM (NF-κB pathway [2]; [5]) of the same molecule?
Answer: > 45%

Question: And the IC50 (NF-κB pathway [2])?
Answer: 1.64 µM

Question: Which “inhibitory effects on the production of cytokines (in words)” value [4] does the source give for `CC(=O)OC[C@]12[C@H](OC(C)=O)[C@H](OC(C)=O)[C@@H]3[C@@H](OC(=O)c4ccccc4)[C@@]14O[C@@]3(C)COC(=O)c1cccnc1C(C)C(C)C(=O)O[C@@H]([C@H](OC(C)=O)[C@@H]2OC(C)=O)[C@]4(C)O` (stereo partly shown) [congorinine E-1] here?
Answer: significant inhibitory effects

Question: Which IC50 (NF-κB pathway [3]) does the source give for `CC(=O)OC[C@]12[C@H](OC(C)=O)[C@H](OC(C)=O)[C@@H]3[C@@H](OC(C)=O)[C@@]14O[C@@]3(C)COC(=O)c1cccnc1CCC(C)(O)C(=O)O[C@@H]([C@H](O)[C@@H]2OC(C)=O)[C@@]4(C)O` (stereo partly shown) [tripfordine A] here?
Answer: 0.74 µM

Question: With wilfordatine E as the molecule, how does the IC50 (NF-κB pathway [3]) read?
Answer: 8.75 µM

Question: Which “inhibitory effects on the production of cytokines (in words)” value [4] does the source give for `CC(=O)OC[C@]12[C@H](OC(C)=O)[C@H](OC(C)=O)[C@@H]3[C@@H](OC(=O)c4ccccc4)[C@@]14O[C@@]3(C)COC(=O)c1cccnc1C(C)C(C)C(=O)O[C@@H]([C@H](OC(C)=O)[C@@H]2OC(=O)c1ccccc1)[C@]4(C)O` (stereo partly shown) [ebenifoline E-11] here?
Answer: significant inhibitory effects

Question: With `CC(=O)OC[C@]12[C@H](OC(C)=O)C(=O)[C@@H]3[C@@H](OC(C)=O)[C@@]14O[C@@]3(C)COC(=O)c1cccnc1CCC(C)(OC(C)=O)C(=O)O[C@@H]([C@H](OC(=O)c1ccoc1)[C@@H]2OC(C)=O)[C@]4(C)O` (stereo partly shown) [9′-O-acetyl-7-deacetoxy-7-oxowilfortrine] as the molecule, how does the IC50 (nitric oxide generation) read?
Answer: 2.59 ± 3.59 µM
